The test system of the experiment is circulating tumor cells (CTC) from patients with CRPC. The experiment in a line: Enzalutamide resistance of patient CTCs assigned to PCS subtypes by the 37-gene classifier. It is filed as in vivo, human. The note with it: for Enzalutamide resistance / Enzalutamide resistance: proportion of CTCs from patients with enzalutamide-resistant tumors: patient CTCs. The text has this:
A random forest machine learning algorithm was employed to develop a diagnostic gene panel. For parameter estimation and training the model, we used the merged dataset. Initially, the model comprised of the 428 SEGs as a set of predictors and subtype label of the merged dataset was used as a response variable for model training. […] We then permuted the values for each gene across every sample and measured how much worse MSE became after the permutation. […] We analyzed single-cell RNA-seq data from 77 intact CTCs isolated from 13 patients (Miyamoto D T, Zheng […], Lee R J, Zhu H, Broderick K T, et al. RNA-Seq of single prostate CTCs implicates noncanonical Wnt signaling in antiandrogen resistance. Science 2015; 349:1351-6). Prior to the clustering analysis to investigate the expression patterns of these CTC data, the normalized read counts as read-per-million (RPM) mapped reads were transformed on a log 2 scale for each gene.

In the case of `CNC(=O)c1ccc(N2C(=S)N(c3ccc(C#N)c(C(F)(F)F)c3)C(=O)C2(C)C)cc1F` [Enzalutamide, enzalutamide], the “OR for CTCs from patients with radiographic and/or PSA progression during enzalutamide therapy” value (GROUP II CTCs (high expression of PCS1-enriched genes), 5 of the 7 CTCs, 95% confidence interval 0.49-6.06) turned out to be 1.74. Besides, the Enzalutamide resistance result is “Yes” (PCS1 subtype) and “No” (PCS2 subtype). For the same compound, the “Enzalutamide resistance: proportion of CTCs from patients with enzalutamide-resistant tumors” value amounted to 58% (PCS1 subtype (7 CTCs out of 12)) and 8% (PCS2 subtype (5 CTCs out of 65)).

Source of the values: patent publication US11174518B2, “Method of classifying and diagnosing cancer” (Cedars-Sinai Medical Center, priority 2015, dated 2021).
